Results published in patent US12022844B2, “Nutritional composition, food/drink composition using nutritional composition, and modified milk powder using nutritional composition” (priority 2018, dated 2024).

How the values were obtained:
Assay in all cases: Single bacterial culturing with HMO as sugar source, OD650
[1] = system: Bifidobacterium peseudocatenulatum ATCC27919; assay type: cell-based, Bifidobacterium pseudocatenulatum; conditions: ATCC 27919^T, sugar source 2%, 8 h, Table 6
Procedure: (§1) A10% solution of glucose (manufactured by Nakarai Tesque Inc.), and 2′-FL ((≥95%) Funakoshi, available from sigma), and LNnT (manufactured by ELICITYL) as examples of HMOs was prepared with ion exchanged water, and was subjected to sterile filtration using Millex-GV (SLGV033RS).
(§2) Lactobacilli MRS Broth (BD) (0.05% L-Cysteine Hydrochloride for Bacteria of the genus Bifidobacterium) was added to strains of Table 1 below (bacteria belonging to Bifidobacterium bifidum) and Table 2 below. After a sterilization treatment, 3% of the bacterial solution was inoculated, and anaerobically cultured (pre-pre cultured) at 37° C. for 16 h. […]
(§3) OD650 was measured from each well in the plates in the above (4) and the above (5) before (0 h) culturing and after (8 h) culturing, by MICROPLATE READER SH-9000 (manufactured by CORONA ELECTRIC). […] After the DNA extraction, the number of proliferating bacteria of Bifidobacteria/lactobacilli was analyzed by using the bacterial species-specific primer noted in Table 4, by a quantitative PCR method (see “Structural analysis of intestinal flora”—analysis of bacterial flora in human feces using quantitative PCR—by Kouichi Watanabe, Enterobacteriological journal, 20:35-42, 2006).
(§4) Regarding strains in Table 2, each strain was cultured as a single bacterium by 2′-FL or LNnT (HMOs) as a sugar source, and OD650 was measured. […]

[2] = system: Lactobacillus acidophhilus ATCC4356; assay type: cell-based, Lactobacillus acidophilus; conditions: ATCC 4356^T, sugar source 2%, 8 h, Table 6
Procedure: as §1, §2, §3, §4

[3] = system: Lactobacillus gasseri ATCC33323; assay type: cell-based; conditions: ATCC 33323^T, sugar source 2%, 8 h, Table 6
Procedure: as §1
(§5) Lactobacilli MRS Broth (BD) (0.05% L-Cysteine Hydrochloride for Bacteria of the genus Bifidobacterium) was added to strains of Table 1 below (bacteria belonging to Bifidobacterium bifidum) and Table 2 below. After a sterilization treatment, 3% of the bacterial solution was inoculated, and anaerobically cultured (pre-pre cultured) at 37° C. for 16 h.
(§6) The following day, 1% glucose was added to a modified BL agar medium (“Studies on Bifidobacteria” by Tomotari Mitsuoka, p. 306, Japan Bifidus Foundation, issued in 1994) noted in Table 3, for preparation. After a sterilization treatment, 3% of the pre-pre cultured bacterial solution was inoculated, and anaerobically pre-cultured (pre-cultured) at 37° C. for 12 h.
(§7) The pre-cultured bacterial solution was collected and washed once with a sterile physiological saline solution. Then, mass-up was performed to an equal volume with the modified BL agar medium (“Studies on Bifidobacteria” by Tomotari Mitsuoka, p. 306, Japan Bifidus Foundation, issued in 1994) noted in Table 3 to prepare a suspended bacterial solution.
(§8) The modified BL agar medium (“Studies on Bifidobacteria” by Tomotari Mitsuoka, p. 306, Japan Bifidus Foundation, issued in 1994) noted in Table 3 was prepared at a capacity of 60%, and was subjected to an autoclave sterilization treatment. Then, 40% of each sugar solution prepared in (1) was aseptically added so as to prepare a medium with a sugar concentration of 4%.
(§9) The medium prepared in the above (3) was dispensed at a capacity that is half the capacity for culturing in a 96-well plate, and the bacterial solution prepared in the above (2) was dispensed at a remaining half capacity such that the bacterial solution had 6%. Then, a final sugar concentration was set to 2%. The plate into which the bacterial solution was dispensed was anaerobically cultured at 37° C. for 8 h.
(§10) OD650 was measured from each well in the plates in the above (4) and the above (5) before (0 h) culturing and after (8 h) culturing, by MICROPLATE READER SH-9000 (manufactured by CORONA ELECTRIC). After turbidity measurement, microbial cells were collected, and DNA extraction was performed. After the DNA extraction, the number of proliferating bacteria of Bifidobacteria/lactobacilli was analyzed by using the bacterial species-specific primer noted in Table 4, by a quantitative PCR method (see “Structural analysis of intestinal flora”—analysis of bacterial flora in human feces using quantitative PCR—by Kouichi Watanabe, Enterobacteriological journal, 20:35-42, 2006).
(§11) Regarding strains in Table 2, each strain was cultured as a single bacterium by 2′-FL or LNnT (HMOs) as a sugar source, and OD650 was measured. The results for 2′-FL are noted in Table 6 below, and the results for LNnT are noted in Table 7 below.

[4] = system: Lactobacillus plantarum ATCC14917; assay type: cell-based; conditions: ATCC 14917^T, sugar source 2%, 8 h, Table 6
Procedure: as §1, §5, §6, §7, §8, §9, §10, §11

## 2′-fucosyllactose [2′-FL]
[1]
  OD650 increase value: 0.02
[2]
  OD650 increase value: 0.01
[3]
  OD650 increase value: −0.017
[4]
  OD650 increase value: 0.013
